{"source": "patent US20140148368A1", "about": "“DRILLING FLUIDS AND DRILLING FLUID ADDITIVES FOR TREATMENT OF BITUMEN IN WELLBORE CUTTINGS” (Marquis Alliance Energy Group Inc., priority 2012, published 2014)", "assay": "Test Program #1: solubility of dodecanedioic acid powder in bitumen wafer", "assay_type": "physicochemical", "conditions": "ambient temperature, 3 days", "description": "The solubility of dodecanedioic acid powder in bitumen was proven in laboratory experiments in which a 30-gram bitumen core sample was compressed at 1,000 pounds per square inch using a compactor, to make bitumen wafers having a diameter of 2.75 cm and a depth (thickness) of 1.8 cm. The bitumen wafer was rolled over carefully in a container with a sufficient quantity of dodecanedioic acid powder. The surface of bitumen wafer was covered with a thin layer of the dodecanedioic acid powder, and the color of the bitumen turned from black to white.", "data": [{"molecule": "O=C(O)CCCCCCCCCCC(=O)O", "note": "[dodecanedioic acid]", "values": [{"measurement": "solubility of powder in bitumen (visual inspection of powder-covered wafer)", "value": "all of the white dodecanedioic acid powder had disappeared"}]}]}
